In patent publication US10835533B2, “1 -((3S,4R)-4-(3-fluorophenyl)-1-(2-methoxyethyl)pyrrolidin-3-yl)-3-(4-methyl-3-(2-methylpyrimidin-5-yl)-1-phenyl-1H-pyrazol-5-yl)urea as a TrkA kinase inhibitor” (Array BioPharma Inc., priority 2014, dated 2020):
Marks after values point to notes of the source that are not given here.

Key:
[1] = Liver microsomal clearance, rat; type: in vitro ADME; conditions: pH 7.4; Rat liver microsomes; 1 mg/mL; 20 minutes
Procedure: (§1) The predicted hepatic clearance (CLh) value was calculated by scaling the in vitro half-life (t1/2) for stability of the compound in liver microsomes (1 mg/mL; 20 minutes) using the physical and physiological scaling factors used to predict intrinsic clearance (CLint) and hepatic clearance (CLhep) listed in Table 2 and employed in the following equations: […]
(§2) where D is the amount of cytochrome P450-related protein per mass of liver, W is the average mass of liver present per weight of animal, C is the liver microsomal concentration, and Q is the species-dependent hepatic blood flow.
(§3) A 100 mM potassium phosphate assay buffer solution (KPB) was prepared as follows. Both KH2PO4 and K2HPO4 were dissolved separately in reagent grade water resulting in final concentrations 100 mM. A 75:25 mixture v/v of K2HPO4:KH2PO4 was prepared and the pH of the solution was adjusted to 7.4 using diluted HCl or diluted NaOH solutions. Stock solutions of Compound 1, Compound 2 and Compound 3 were prepared at 10 mM (active compound) in DMSO. The stock solution was diluted immediately before use to 2.5 μM using the KPB solution to create the working standard. All test compounds were completely soluble in DMSO by visual inspection at room temperature. The NADPH-regenerating solution (NRS) was prepared on the day of analysis by diluting one volume of 17 mg/mL NADP^+ with one volume of 78 mg/mL glucose-6-phosphate (both prepared in KPB, pH 7.4) and 7.9 volumes of 20 mM MgCl2. The final concentrations of NADP^+ and glucose-6-phosphate were 1.7 mg/mL and 7.8 mg/mL, respectively. […]
(§4) All calculations were performed using BioAssay Enterprise. The mean peak area ratios were calculated by averaging the peak area ratios (n=2) of Compound 1, Compound 2, Compound 3, and the internal standard for each sample. Percent remaining was calculated by determining the ratio of the peak area ratio at each time point to the peak area ratio of the time-zero samples. The rate of loss of test compound (km) was determined by linear regression of −ln(f(t)) versus time. […] The t1/2 was determined dividing ln(2) by km. […]

[2] = Liver microsomal clearance, mouse; type: in vitro ADME; conditions: pH 7.4; Mouse liver microsomes; 1 mg/mL; 20 minutes
Procedure: as §1, §2, §3, §4

[3] = Liver microsomal clearance, dog; type: in vitro ADME; conditions: pH 7.4; Dog liver microsomes; 1 mg/mL; 20 minutes
Procedure: as §1, §2, §3, §4

[4] = molecular target: T1, His-tagged recombinant human TrkA (Homo sapiens, UniProt P04629); assay: TrkA LanthaScreen Eu Kinase Binding Assay (Example A); conditions: assay of Example A; 60-minute incubation at 22° C.; read-out: averaged IC50 value, TrkA binding
T1 construct: 6HIS tagged cytoplasmic domain from Invitrogen, Catalog No. PV3144; purchased Invitrogen PV3144
T1 sequence (P04629 440-796 limits assumed): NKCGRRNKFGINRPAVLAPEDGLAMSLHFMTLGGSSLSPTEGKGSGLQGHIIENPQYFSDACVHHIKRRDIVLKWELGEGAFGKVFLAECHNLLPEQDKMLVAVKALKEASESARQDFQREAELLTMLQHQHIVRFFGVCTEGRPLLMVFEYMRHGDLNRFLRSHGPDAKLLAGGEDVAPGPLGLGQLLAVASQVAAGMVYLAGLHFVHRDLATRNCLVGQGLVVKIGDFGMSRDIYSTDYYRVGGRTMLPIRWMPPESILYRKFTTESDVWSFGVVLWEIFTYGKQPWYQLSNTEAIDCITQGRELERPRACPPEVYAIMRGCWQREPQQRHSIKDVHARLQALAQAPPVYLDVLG
Procedure: TrkA binding activity was determined in a TrkA LanthaScreen™ Eu Kinase Binding Assay. 5 nM His-tagged recombinant human TrkA (6HIS tagged cytoplasmic domain from Invitrogen, Catalog No. PV3144) was incubated with 4 nM Alexa-Fluor® Tracer 236 (Invitrogen Catalog No. PV5592), 2 nM biotinylated anti-His (Invitrogen Cat. No. PV6090), and 2 nM europium-labeled Streptavidin (Invitrogen Cat. No. PV5899), in buffer (25 mM MOPS, pH 7.5, 5 mM MgCl2, 0.005% Triton X-100). Three fold serial dilutions of Compound 1, compound 2 or compound 3 in DMSO were added to a final percentage of 2% DMSO. After 60-minute incubation at 22° C., the reaction was measured using the EnVision mutlimode plate reader (PerkinElmer) via TR-FRET dual wavelength detection at […]. The percent of control was calculated using a ratiometric emission factor. The IC50 value was determined by fitting a four parameter model to the percent of control data.

[5] = Liver microsomal clearance, monkey; type: in vitro ADME; conditions: pH 7.4; Monkey liver microsomes; 1 mg/mL; 20 minutes
Procedure: as §1, §2, §3, §4

[6] = Predicted human IV clearance (microsomal CLh/correction factor); conditions: for in vivo/in vitro correction factor: pre-clinical mean correction factor for all species tested; for IV clearance (predicted): predicted from human microsomal CLh and mean pre-clinical correction factor
Procedure: In Table 1, the predicted human IV clearance values were calculated from compound concentration-versus-time data in plasma collected from pre-clinical species (mouse, rat, dog and monkey) following 1 mg/kg intravenous (IV) doses. Concentrations of compound in plasma were measured by LC-MS (liquid chromatography-mass spectrometry). AUCinf values (Area under the plasma concentration-time curve for a dosing interval from time 0 extrapolated to infinity) for individual Cp/t curves (concentration of the drug in plasma at any time t) were determined using linear-trapezoidal integration and first order extrapolation from terminal points of the Cp/t curves, and clearance (CL) was calculated using Dose/AUCinf.
The in vivo/in vitro correction factor was then determined by dividing the […]. The arithmetic mean of the pre-clinical correction factors for each compound was used to predict the human IV clearance from the measured human microsomal CLh (CLh/correction factor).

| CLhep predicted at 1 μM [1] | CLhep predicted at 1 μM [2] | CLhep predicted at 1 μM [3] | IC50 [4] | CLhep predicted at 1 μM [5] | in vivo/in vitro correction factor [6] | IV clearance (predicted) [6] | Compound |
| --- | --- | --- | --- | --- | --- | --- | --- |
| 22 mL/min/kg | 50 mL/min/kg | 24 mL/min/kg | 1.1 nM | 33 mL/min/kg | 2.09 *** | 5 (predicted)** mL/min/kg | COCCN1C[C@@H](NC(=O)Nc2c(C)c(-c3cnc(C)nc3)nn2-c2ccccc2)[C@H](c2cccc(F)c2)C1 [Compound 1, 1-((3S,4R)-4-(3-fluorophenyl)-1-(2-methoxyethyl)pyrrolidin-3-yl)-3-(4-methyl-3-(2-methylpyrimidin-5-yl)-1-phenyl-1H-pyrazol-5-yl)urea] |
| 22 mL/min/kg | 57 mL/min/kg | 26 mL/min/kg | 1.5 nM | 38 mL/min/kg | 1.32 *** | 12 (predicted)** mL/min/kg | COCCN1C[C@@H](NC(=O)Nc2c(C)c(-c3cnc(C)nc3)nn2-c2ccccc2)[C@H](c2ccc(F)c(F)c2)C1 [Compound 2, 1-((3S,4R)-4-(3,4-difluorophenyl)-1-(2-methoxyethyl)pyrrolidin-3-yl)-3-(4-methyl-3-(2-methylpyrimidin-5-yl)-1-phenyl-1H-pyrazol-5-yl)urea] |
| 23 mL/min/kg | 60 mL/min/kg | 23 mL/min/kg | 1.7 nM | 32 mL/min/kg | 0.96 *** | 10 (predicted)** mL/min/kg | COCCN1C[C@@H](NC(=O)Nc2c(C)c(-c3cnn(C)c3)nn2-c2ccccc2)[C@H](c2ccc(F)cc2)C1 [Compound 3, 1-(1′,4-dimethyl-1-phenyl-1H,1′H-[3,4′-bipyrazol]-5-yl)-3-((3S,4R)-4-(4-fluorophenyl)-1-(2-methoxyethyl)pyrrolidin-3-yl)urea] |
